Assay results taken from publication PMC5656322, “BAK1 is involved in AtRALF1-induced inhibition of root cell expansion” (PLoS Genetics, 2017).
Where no end group is shown, it is not given here.

Columns and labels:
[1] = tested on: intact Arabidopsis seedlings; assay: Binding assay with acridinium-labeled AtRALF34, intact seedlings; design: species or system Arabidopsis thaliana; conditions: 10-fold excess of unlabeled AtRALF1
Description: Arabidopsis seedlings were grown for 5 days on vertical plates. Roots were homogenized in extraction buffer [300 mM sucrose, 100 mM Tris-HCl pH 7.5, 25 mM EDTA, 25 mM NaF, 1 mM Na2MoO4, 1 mM PMSF and protease inhibitor cocktail (Roche), adjusted to pH 6.2], and the homogenate was spun at 2,000 x g for 10 min at 4 °C. The supernatant was recovered and centrifuged at 100,000 x g for 50 min at 4 °C to precipitate the microsomal pellet. The pellet was resuspended in the extraction buffer plus 0.5% Triton-X. Seedlings or microsomal fractions were placed in 200 μl of medium and incubated with 7 nM acridinium-labeled peptide (acriAtRALF1 or acriAtRALF34) and different concentrations of AtRALF1, AtRALF34 or RALF1(9–49) for 15–20 min at 4 °C on a shaker. After incubation, the seedlings or microsomal fractions were washed three times with the same medium. Unless indicated otherwise, five entire seedlings and approximately 10 ng of microsomal fractions were used per treatment. The resulting luminescence emissions from the acridinium were measured using a microplate reader (Biotec ELx 800) at 2 s after injecting 50 μl of a solution containing 20 mM H2O2 in 0.1 M NaOH. These experiments were repeated at least three times using independent biological replicates. Duplicates were used for each concentration or treatment. The data shown are from one representative experiment. […]

[2] = tested on: truncated proteins from the extracellular domain of BAK1; assay: Yeast two-hybrid with truncated BAK1-ECD; format: binding, Arabidopsis thaliana
Text: Fig 6 AtRALF1 interacts physically with BAK1 protein. (A) The active AtRALF1 peptide interacts with the extracellular domain (ECD) of BAK1 (BAK1-ECD) in yeast. The AtRALF1 protein fused to the GAL4 DNA-binding domain (AtRALF1-pGBKT7) was used as bait to test its interaction with the extracellular domain of the proteins fused to the GAL4 activation domain (pGADT7): BAK1 (BAK1-ECD), BAK7 (BAK7-ECD), BRI1 (BRI1-ECD) and FLS2 (FLS2-ECD). (B) Blueprint showing the truncated proteins from the extracellular domain of BAK1 tested in the two-hybrid assay. The extracellular domain of BAK1 comprises leucine zippers (LZ), 5 leucine rich-regions (LRRs) and a proline-rich region (pro-rich). (C) AtRALF1-pGBKT7 was used as bait to test its interaction with truncated proteins fused to the GAL4 activation domain (pGADT7). The transformed yeast cells in (A) and (C) were selected on a synthetic complete medium lacking leucine, tryptophan and histidine to test interactions. (D, E) Co-immunoprecipitation (Co-IP) in vitro between the extracellular domain of BAK1 (HA-BAK1-ECD) and AtRALF1 recombinant purified proteins. HA-BAK1-ECD was detected with an anti-HA antibody. AtRALF1 was detected with an anti-RALF antibody. (F) Recombinant AtRALF1 is co-immunoprecipitated with the BAK1-GFP protein expressed in tobacco. BAK1-GFP was detected with an anti-GFP antibody. […] (G) Isothermal titration calorimetry (ITC) of the extracellular domain of BAK1 (BAK1-ECD) vs. AtRALF1 in ITC buffer (15 mM HEPES, pH 6.8). ITC experiments were simulated using 28 injections of BAK1-ED (0.7 mM, vol 10 μL) on AtRALF1 (0.03 mM vol cell = 1.4 mL) at 25°C. […]
The coding regions of the mature peptides AtRALF1 and AtRALF34 were amplified from Arabidopsis genomic DNA and fused to the GAL4 DNA-binding domain and the MYC epitope tag using the NdeI/BamHI sites in the pGBKT7 (Clontech) vector. […] The proteins fused to the HA and MYC epitope tags were detected by protein blotting. […]
Supplementary file pgen.1007053.s012.pdf: S12 Fig Analyses of protein extracts from yeast. […] The proteins were monitored using an anti-HA antibody. […]

AtRALF1: root-specific RALF isoform in Arabidopsis; recombinant peptide hormone produced in E. coli (ATTKYISYQSLKRNSVPCSRRGASYYNCQNGAQANPYSRGCSKIARCRS; ends and bridges not checked; cysteine pairing not given here)
effect of unlabeled AtRALF1 on total acriAtRALF34 binding [1]: did not alter the total binding | interaction with truncated BAK1-ECD ([2]; 12 truncated proteins): only two that interacted with AtRALF1: Leu zippers + LRR1 + LRR2 + LRR3 and Leu zippers + LRR1 + LRR2 | interaction with BAK1-ECD lacking Pro-rich region and LRR5 ([2]; C-terminal deletion): abolished the interaction | interaction with N-terminal deletions of BAK1-ECD ([2]; deletions from N-terminal): None of the deletions from N-terminal were able to interact with AtRALF1
